Results: PubChem BioAssay (NCI)
Where “and” joins values, the source holds several entries; their conditions need not be identical. Identical values can stand only once.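 Growth conditions: 96-well plates. Treatment: test compound, 48 hours, 5 concentrations. Analysis: linear interpolation between bracketing concentrations; unreached endpoints set to highest concentration. At the GI50, growth is halved. TGI is the concentration that stops growth completely.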

Experiments:
Assay in all cases: inhibition of tumour cell growth, NCI panel, 48 h
[1] = system: CAKI-1 renal
[2] = system: OVCAR-8 ovarian
[3] = system: HOP-62 NSCLC
[4] = system: SK-OV-3 ovarian
[5] = system: A498 renal
[6] = system: MDA-MB-435
[7] = system: CCRF-CEM leukemia
[8] = system: SF-295 CNS
[9] = system: UACC-257 melanoma
[10] = system: UO-31 renal
[11] = system: RPMI-8226 leukemia
[12] = system: HOP-92 NSCLC
[13] = system: KM12 colon
[14] = system: U251 CNS
[15] = system: RXF 393 renal
[16] = system: K-562 leukemia
[17] = system: SF-268 CNS
[18] = system: SK-MEL-5 melanoma
[19] = system: MALME-3M melanoma
[20] = system: TK-10 renal
[21] = system: OVCAR-5 ovarian
[22] = system: NCI-H460 lung
[23] = system: SF-539 CNS
[24] = system: DU-145 prostate
[25] = system: SNB-75 CNS
[26] = system: LOX IMVI melanoma
[27] = system: SK-MEL-2 melanoma
[28] = system: NCI/ADR-RES ovarian
[29] = system: NCI-H23 lung
[30] = system: UACC-62 melanoma
[31] = system: HT29 colon
[32] = system: M14 melanoma
[33] = system: HS 578T breast
[34] = system: T-47D breast
[35] = system: EKVX NSCLC
[36] = system: SK-MEL-28 melanoma
[37] = system: HCC-2998 colon
[38] = system: SW-620 colon
[39] = system: 786-0 renal
[40] = system: SR leukemia
[41] = system: ACHN renal
[42] = system: OVCAR-3 ovarian
[43] = system: NCI-H226 lung
[44] = system: SNB-19 CNS
[45] = system: MCF7 breast
[46] = system: COLO 205 colon
[47] = system: IGROV1 ovarian
[48] = system: BT-549 breast
[49] = system: A549 NSCLC
[50] = system: HCT-116 colon
[51] = system: SN12C renal
[52] = system: MOLT-4 leukemia
[53] = system: HCT-15 colon
[54] = system: NCI-H522 lung
[55] = system: OVCAR-4 ovarian
[56] = system: PC-3 prostate
[57] = system: MDA-MB-231 breast
[58] = system: HL-60(TB) leukemia

`Cc1cnc(-c2ccc(-c3ccc(NC(=O)Nc4c(F)cc(F)cc4F)cc3F)c3c2C(=O)NC3)[nH]1` was tested, and the GI50 [1] was 1740 nM, the TGI [1] was 27.5 µM and the GI50 [2] was 1250 nM and 2080 nM. The TGI [2] was 3.77 µM and 9.45 µM, the TGI [3] was 3.07 µM and 11 µM and the GI50 [4] was 1420 nM and 3590 nM. The TGI [4] was 18.3 µM and 23.3 µM, the GI50 [5] was 6.48 µM and 2.13 µM and the TGI [5] was 24.3 µM and 14.9 µM. For the same molecule, the GI50 [6] was 483 nM, the TGI [6] was 4.29 µM and the TGI [7] was > 100 µM. For the same molecule, the TGI [8] was 18.8 µM and 18.4 µM, the GI50 [9] was 333 nM and 970 nM and the TGI [9] was 10.2 µM and 14.5 µM. The GI50 [10] was 594 nM and 1460 nM, the TGI [10] was > 100 µM and the GI50 [11] was 1020 nM and 715 nM. For the same molecule, the TGI [11] was 6.02 µM and > 33 µM, the GI50 [12] was 1310 nM and 2010 nM and the TGI [12] was 6.37 µM and 12.1 µM. The GI50 [13] was < 10 nM, the TGI [13] was 2.58 µM and 6.87 µM and the GI50 [14] was 433 nM and 926 nM. The TGI [14] was 1850 nM and 2510 nM, the GI50 [15] was 1150 nM and 1320 nM and the TGI [15] was 3.6 µM and 5.58 µM. The GI50 [16] was 329 nM and 660 nM, the TGI [16] was 2.96 µM and 11.5 µM and the GI50 [17] was 1170 nM and 3250 nM. The TGI [17] was 20.6 µM and 22.9 µM, the GI50 [18] was 852 nM and 2090 nM and the TGI [18] was 9.16 µM and 14.1 µM. The GI50 [19] was 124 nM and 106 nM, the TGI [19] was 2370 nM and 2800 nM and the GI50 [20] was 2.06 µM and 5.43 µM. The TGI [20] was 7.67 µM and 17.6 µM, the GI50 [21] was 1610 nM and 1560 nM and the TGI [21] was 13.2 µM and 12.6 µM. For the same molecule, the GI50 [22] was 989 nM, the TGI [22] was 2750 nM and the GI50 [23] was 709 nM. The TGI [23] was 18.9 µM, the GI50 [24] was 1100 nM and 1420 nM and the TGI [24] was 4.64 µM and 7.36 µM. The GI50 [25] was 2960 nM, the TGI [25] was 10.9 µM and the GI50 [26] was 97.3 nM and 386 nM. For the same molecule, the TGI [26] was 4.22 µM and 14.5 µM, the GI50 [27] was 1570 nM and 3750 nM and the TGI [27] was 14.3 µM and 21.6 µM. For the same molecule, the GI50 [28] was > 100 µM, the TGI [28] was > 100 µM and the GI50 [29] was 286 nM and 545 nM. For the same molecule, the TGI [29] was 5.5 µM and 6.52 µM, the GI50 [30] was 140 nM and 223 nM and the TGI [30] was 2100 nM and 2390 nM. The GI50 [31] was 431 nM and 359 nM, the TGI [31] was 2660 nM and 2450 nM and the GI50 [32] was 39.2 nM and 211 nM. The TGI [32] was 1.99 µM and 17.1 µM, the GI50 [33] was 351 nM and 1070 nM and the TGI [33] was 5.19 µM and 13.5 µM. The GI50 [34] was 2.98 µM and 12.6 µM, the TGI [34] was 20.5 µM and 47.5 µM and the GI50 [35] was 2330 nM and 2960 nM. For the same molecule, the TGI [35] was > 100 µM, the GI50 [36] was 1160 nM and 642 nM and the TGI [36] was 9.69 µM and 5.48 µM. For the same molecule, the GI50 [37] was 2010 nM and 1610 nM, the TGI [37] was > 100 µM and 11.6 µM and the GI50 [38] was 430 nM. For the same molecule, the TGI [38] was 2190 nM, the GI50 [39] was 1250 nM and the TGI [39] was 2860 nM. For the same molecule, the GI50 [40] was 29.4 nM and < 10 nM, the GI50 [41] was 2550 nM and 1350 nM and the TGI [41] was > 100 µM and 28.6 µM. For the same molecule, the GI50 [42] was 1380 nM and 1510 nM, the TGI [42] was 2820 nM and 3020 nM and the GI50 [43] was 4.2 µM and 6.26 µM. For the same molecule, the TGI [43] was 39.9 µM and 36.5 µM, the GI50 [44] was 2000 nM and 2510 nM and the TGI [44] was 14.4 µM and 15.5 µM. For the same molecule, the GI50 [45] was 141 nM and 410 nM, the TGI [45] was 6.53 µM and 12.8 µM and the GI50 [46] was < 10 nM. The TGI [46] was 13.2 µM and 27.3 µM, the GI50 [47] was 824 nM and 1310 nM and the TGI [47] was 6.63 µM and 18.8 µM. The GI50 [48] was 1190 nM and 1690 nM, the TGI [48] was 19.2 µM and 16.1 µM and the GI50 [49] was 1290 nM and 1110 nM. The TGI [49] was 8.23 µM and 10.8 µM, the GI50 [50] was 307 nM and 1030 nM and the TGI [50] was 2800 nM and 2710 nM. The GI50 [51] was 1290 nM and 432 nM, the TGI [51] was 4.57 µM and 3.41 µM and the GI50 [52] was 68.6 nM and 212 nM. For the same molecule, the TGI [52] was 13.1 µM and 18.1 µM, the GI50 [53] was 1820 nM and 948 nM and the TGI [53] was > 100 µM. For the same molecule, the GI50 [54] was 1120 nM and 1200 nM, the TGI [54] was 3.69 µM and 3.95 µM and the GI50 [55] was 1440 nM. The TGI [55] was 3.2 µM, the GI50 [56] was 1410 nM and 2570 nM and the TGI [56] was 3.82 µM and 30.1 µM. For the same molecule, the GI50 [57] was 1590 nM and 2510 nM, the TGI [57] was 8.16 µM and 11.3 µM and the GI50 [58] was 1100 nM and 946 nM. The TGI [58] was 12.9 µM and 16.9 µM.
